These results are taken from patent US10072011B2, “Substituted bridged urea analogs as sirtuin modulators” (GlaxoSmithKline Intellectual Property (No.2) Limited, priority 2014, dated 2018).

Where only a bound is given, the exact number is not on record here.

This assay concerns the target T1, SIRT1 (Homo sapiens, UniProt Q96EB6).
T1 sequence (Q96EB6 1-747): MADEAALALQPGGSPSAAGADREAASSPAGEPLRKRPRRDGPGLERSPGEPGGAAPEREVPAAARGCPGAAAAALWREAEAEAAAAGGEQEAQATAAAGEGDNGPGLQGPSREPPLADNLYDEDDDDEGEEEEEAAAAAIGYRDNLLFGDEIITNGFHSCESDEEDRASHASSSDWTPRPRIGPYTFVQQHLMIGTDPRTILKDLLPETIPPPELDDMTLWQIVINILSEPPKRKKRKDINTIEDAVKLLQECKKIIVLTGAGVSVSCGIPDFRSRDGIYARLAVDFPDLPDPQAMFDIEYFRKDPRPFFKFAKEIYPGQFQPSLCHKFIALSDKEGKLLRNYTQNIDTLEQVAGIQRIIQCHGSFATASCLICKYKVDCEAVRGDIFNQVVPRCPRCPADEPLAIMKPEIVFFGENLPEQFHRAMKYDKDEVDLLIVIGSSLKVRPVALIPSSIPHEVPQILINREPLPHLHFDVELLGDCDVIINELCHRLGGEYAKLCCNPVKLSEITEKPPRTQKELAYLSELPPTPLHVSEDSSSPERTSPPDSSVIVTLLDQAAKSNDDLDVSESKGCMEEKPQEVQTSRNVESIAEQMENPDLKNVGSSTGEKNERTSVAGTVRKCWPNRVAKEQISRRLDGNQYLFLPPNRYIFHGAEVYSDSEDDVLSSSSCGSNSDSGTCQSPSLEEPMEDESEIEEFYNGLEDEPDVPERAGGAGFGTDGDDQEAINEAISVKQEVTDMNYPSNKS
The assay can be described thus: Trp mass spectrometry assay of SIRT1 activation (Ac-R-H-K-K(Ac)-W-NH2 peptide). It is filed as biochemical. The note with it: Trp peptide 0.5 μM, 120 μM βNAD+, 10 nM SIRT1, 25 min at 25° C.; for Emax: 25 min, relative to control (100%), read-out: TRP MAX RESP (percent maximum fold activation). In outline:
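N-terminal His-tagged human SIRT1, expressed in BL21(DE3) and purified, was incubated 25 min with an acetylated Trp peptide and NAD plus test compound at varying concentrations, then quenched with formic acid. OAADPR or deacetylated peptide was quantified by mass spectrometry versus compound-free control; EC1.5 is the concentration giving 50% activity increase, with percent maximum activation.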

As for `CC(F)(F)CNC(=O)c1ccc2c(n1)N(C(=O)Nc1ccccn1)[C@H]1CCN2C1` [Example 47, (4S)—N7-(2,2-difluoropropyl)-N5-(pyridin-2-yl)-3,4-dihydro-1,4-methanopyrido[2,3-b][1,4]diazepine-5,7(2H)-dicarboxamide], the Emax is over 150% and the “TRP Activity (EC1.5, concentration of test compound that results in 150% activation of SIRT1)” value was “A (EC1.5<1 μM)”.

`CC(C)(C)NC(=O)c1ccc2c(n1)N(C(=O)Nc1ccccn1)[C@H]1CCN2C1` [Example 48, (4S)—N7-(tert-butyl)-N5-(pyridin-2-yl)-3,4-dihydro-1,4-methanopyrido[2,3-b][1,4]diazepine-5,7(2H)-dicarboxamide]: the Emax is over 150% and the “TRP Activity (EC1.5, concentration of test compound that results in 150% activation of SIRT1)” value was “B (EC1.5 1-25 μM)”.

In the case of `O=C(NCC1CC1)c1ccc2c(n1)N(C(=O)Nc1ccc(Cl)cn1)[C@H]1CCN2C1` [Example 51, (4S)—N5-(5-chloropyridin-2-yl)-N7-(cyclopropylmethyl)-3,4-dihydro-1,4-methanopyrido[2,3-b][1,4]diazepine-5,7(2H)-dicarboxamide], the Emax was over 150% and the “TRP Activity (EC1.5, concentration of test compound that results in 150% activation of SIRT1)” value is “A (EC1.5<1 μM)”.

Turning to `O=C(NC[C@H](O)C(F)(F)F)c1ccc2c(n1)N(C(=O)Nc1ccccn1)[C@H]1CCN2C1` [Example 52, (4S)—N5-(pyridin-2-yl)-N7-((S)-3,3,3-trifluoro-2-hydroxypropyl)-3,4-dihydro-1,4-methanopyrido[2,3-b][1,4]diazepine-5,7(2H)-dicarboxamide], the Emax was over 150% and the “TRP Activity (EC1.5, concentration of test compound that results in 150% activation of SIRT1)” value was “A (EC1.5<1 μM)”.

On to `C[C@@H](CO)NC(=O)c1ccc2c(n1)N(C(=O)Nc1ccccn1)[C@H]1CCN2C1` [Example 53, (4S)—N7-((S)-1-hydroxypropan-2-yl)-N5-(pyridin-2-yl)-3,4-dihydro-1,4-methanopyrido[2,3-b][1,4]diazepine-5,7(2H)-dicarboxamide], for which the Emax is over 150% and the “TRP Activity (EC1.5, concentration of test compound that results in 150% activation of SIRT1)” value is recorded as “B (EC1.5 1-25 μM)”.

Consider `Cc1ccc2c(NC(=O)N3c4nc(C(=O)NC5CC5)ccc4N4CC[C@H]3C4)n[nH]c2n1` [Example 54, (4S)—N7-cyclopropyl-N5-(6-methyl-1H-pyrazolo[3,4-b]pyridin-3-yl)-3,4-dihydro-1,4-methanopyrido[2,3-b][1,4]diazepine-5,7(2H)-dicarboxamide], for which the Emax is over 150% and the “TRP Activity (EC1.5, concentration of test compound that results in 150% activation of SIRT1)” value was “B (EC1.5 1-25 μM)”.

`Cc1ccnc(NC(=O)N2c3nc(C(=O)N[C@H](C)C(F)(F)F)ccc3N3CC[C@H]2C3)c1` [Example 55, (4S)—N5-(4-methylpyridin-2-yl)-N7-((R)-1,1,1-trifluoropropan-2-yl)-3,4-dihydro-1,4-methanopyrido[2,3-b][1,4]diazepine-5,7(2H)-dicarboxamide]: the Emax is over 150% and the “TRP Activity (EC1.5, concentration of test compound that results in 150% activation of SIRT1)” value is “A (EC1.5<1 μM)”.

With `Cc1ccc(NC(=O)N2c3nc(C(=O)N[C@H](C)C(F)(F)F)ccc3N3CC[C@H]2C3)nc1` [Example 56, (4S)—N5-(5-methylpyridin-2-yl)-N7-((R)-1,1,1-trifluoropropan-2-yl)-3,4-dihydro-1,4-methanopyrido[2,3-b][1,4]diazepine-5,7(2H)-dicarboxamide], the Emax was over 150% and the “TRP Activity (EC1.5, concentration of test compound that results in 150% activation of SIRT1)” value is on record as “A (EC1.5<1 μM)”.

`Cc1cc(F)cnc1NC(=O)N1c2nc(C(=O)N[C@H](C)C(F)(F)F)ccc2N2CC[C@H]1C2` [Example 57, (4S)—N5-(5-fluoro-3-methylpyridin-2-yl)-N7-((R)-1,1,1-trifluoropropan-2-yl)-3,4-dihydro-1,4-methanopyrido[2,3-b][1,4]diazepine-5,7(2H)-dicarboxamide]: the Emax is over 150% and the “TRP Activity (EC1.5, concentration of test compound that results in 150% activation of SIRT1)” value is given as “B (EC1.5 1-25 μM)”.
